# Assay results as given in US8658646B2, “Pyrrolopyrazine kinase inhibitors” (Hoffmann-LaRoche Inc., priority 2011, dated 2014).
# Where “and” joins values, the source holds several entries; their conditions need not be identical. Equal values may be shown once.
# What was measured:
# [1] = biological target: T1, JAK3: Recombinant human kinase domain (Homo sapiens, UniProt P52333); assay: Determination of IC50 of Janus Kinase (JAK) inhibition, radioactive end-point 33P-ATP assay, JAK3; format: biochemical; settings: ATP 1.5 uM, peptide 50 uM, 20 minutes, read-out: JAK3-INHIB-DR/v1~NO ADDITIVE~Enzyme_Conc = 100
# T1 construct: JAK3: Recombinant human kinase domain from Millipore (Cat #14-629) or prepared; purchased Millipore 14-629
# Experimental: Determination of IC50 of Janus Kinase (JAK) Inhibition:
# Assay conditions used are described below: • Assay Buffer: JAK Kinase Buffer: 50 mM Hepes [pH 7.2], 10 mM MgCl2, 1 mM DTT, 1 mg/ml BSA. The assay was carried out in this buffer. • Assay Format The kinase activity of all three JAK kinases was measured using a radioactive, end-point assay and with trace amounts of ^33P-ATP. The assays were carried out in 96-well polypropylene plates. Experimental Method:
# All concentrations were final in the reaction mixture and all incubations were carried at room temperature. […] Final concentration of DMSO in the reaction was 10%. • 2) Compounds were preincubated with enzyme (0.5 nM JAK3 (commercially available), 0.2 nM JAK3 (prepared), 1 nM JAK2, 5 nM JAK1) for 10 minutes. • 3) Reactions were initiated by the addition of a cocktail of the two substrates (ATP and peptide premixed in the JAK Kinase Buffer). […] JAK1 assay was carried out at an ATP concentration of 10 uM and a peptide concentration of 50 uM. • 4) The duration of the assay for JAK2 and JAK3 is 20 minutes. JAK1 assay was carried out for 40 minutes. With all three enzymes, reactions were terminated by the addition of 0.5M EDTA to a final concentration of 100 mM. • 5) 25 ul of terminated reactions were transferred to 150 ul of a 7.5% (v/v) slurry of streptavidin-coated sepharose beads in MgCl2- and CaCl2-free 1× Phosphate Buffered Saline containing 50 mM of EDTA in 96-well, 1.2 um MultiScreen-BV filter plates. • 6) After a 30-minute incubation, the beads were washed under vacuum with the following buffers: • a. 3 to 4 washes with 200 ul of 2M NaCl. • b. 3 to 4 washes with 200 ul of 2M NaCl plus 1% (v/v) phosphoric acid. • c. 1 wash with water. • 7) Washed plates were dried in a 60° C. oven for between 1 to 2 hours. • 8) 70 ul of Microscint 20 scintillation fluid was added to each well of filter plates and after at least 30 minutes of incubation, radioactive counts were measured in a Perkinelmer microplate scintillation counter.
# [2] = biological target: T2, recombinant human SYK360-635 (Homo sapiens, UniProt P43405); assay: Determination of IC50 of Spleen Tyrosine Kinase (SYK) inhibition, 33P ATP filtration assay; format: biochemical; settings: SYK aa 360-635 0.5 nM; ATP 20 μM, peptide 5 μM, 0.1% BSA; read-out: SYK_ENZYME_FILTRATION/v1, BSA
# T2 construct: made in house
# T1 sequence (P52333 822-1111 limits assumed): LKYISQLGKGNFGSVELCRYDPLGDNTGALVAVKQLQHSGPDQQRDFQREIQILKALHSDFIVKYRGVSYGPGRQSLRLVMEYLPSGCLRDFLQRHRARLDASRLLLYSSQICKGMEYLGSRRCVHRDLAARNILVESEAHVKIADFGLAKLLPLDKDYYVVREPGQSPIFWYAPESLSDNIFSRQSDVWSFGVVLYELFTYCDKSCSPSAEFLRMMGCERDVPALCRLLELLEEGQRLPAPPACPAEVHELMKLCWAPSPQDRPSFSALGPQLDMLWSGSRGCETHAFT
Structure (SMILES),IC50 [1],IC50 [2]
"Cn1nc(-c2cnc3[nH]cc(C(=O)NCC(C)(C)C)c3n2)c2ccc(F)cc21 [Example I-115, 2-(6-Fluoro-1-methyl-1H-indazol-3-yl)-5H-pyrrolo[2,3-b]pyrazine-7-carboxylic acid (2,2-dimethyl-propyl)-amide]",8.23 nM,19.3 nM
"C[C@H](CN1CC[C@@H](F)C1)NC(=O)c1c[nH]c2ncc(-c3nn(C)c4cc(Cl)ccc34)nc12 [Example I-121, 2-(6-Chloro-1-methyl-1H-indazol-3-yl)-5H-pyrrolo[2,3-b]pyrazine-7-carboxylic acid [(R)-2-((R)-3-fluoro-pyrrolidin-1-yl)-1-methyl-ethyl]-amide]",124 nM,372 nM
"C[C@H](CN1CC[C@H](F)C1)NC(=O)c1c[nH]c2ncc(-c3nn(C)c4cc(Cl)ccc34)nc12 [Example I-122, 2-(6-Chloro-1-methyl-1H-indazol-3-yl)-5H-pyrrolo[2,3-b]pyrazine-7-carboxylic acid [(R)-2-((S)-3-fluoro-pyrrolidin-1-yl)-1-methyl-ethyl]-amide]",82.4 nM,284 nM
"C[C@H](CN1CC(F)C1)NC(=O)c1c[nH]c2ncc(-c3nn(C)c4cc(Cl)ccc34)nc12 [Example I-123, 2-(6-Chloro-1-methyl-1H-indazol-3-yl)-5H-pyrrolo[2,3-b]pyrazine-7-carboxylic acid [(R)-2-(3-fluoro-azetidin-1-yl)-1-methyl-ethyl]-amide]",68.6 nM,144 nM
"CC(CN1CCC(C#N)C1)NC(=O)c1c[nH]c2ncc(-c3nn(C)c4cc(Cl)ccc34)nc12 (centres unmarked) [Example I-125, 2-(6-Chloro-1-methyl-1H-indazol-3-yl)-5H-pyrrolo[2,3-b]pyrazine-7-carboxylic acid [2-(3-cyano-pyrrolidin-1-yl)-1-methyl-ethyl]-amide]",29.3 nM,83.5 nM
"CC(C)NC(=O)c1c[nH]c2ncc(-c3nn(CCCN(C)C)c4cc(Cl)cc(F)c34)nc12 [Example I-131, 2-[6-Chloro-1-(3-dimethylamino-propyl)-4-fluoro-1H-indazol-3-yl]-5H-pyrrolo[2,3-b]pyrazine-7-carboxylic acid isopropylamide]",7.06 nM,39.8 nM
"CC(C)NC(=O)c1c[nH]c2ncc(-c3nn(CCCN4CCOCC4)c4cc(Cl)cc(F)c34)nc12 [Example I-132, 2-[6-Chloro-4-fluoro-1-(3-morpholin-4-yl-propyl)-1H-indazol-3-yl]-5H-pyrrolo[2,3-b]pyrazine-7-carboxylic acid isopropylamide]",4.72 nM,23.4 nM
"C[C@H](Cn1ccnc1)NC(=O)c1c[nH]c2ncc(-c3nn(C)c4cc(Cl)ccc34)nc12 [Example I-134, 2-(6-Chloro-1-methyl-1H-indazol-3-yl)-5H-pyrrolo[2,3-b]pyrazine-7-carboxylic acid ((R)-2-imidazol-1-yl-1-methyl-ethyl)-amide]",67.3 nM,482 nM
"Cn1nc(-c2cnc3[nH]cc(C(=O)N[C@H]4CCCOC4)c3n2)c2ccc(Cl)cc21 [Example I-138, 2-(6-Chloro-1-methyl-1H-indazol-3-yl)-5H-pyrrolo[2,3-b]pyrazine-7-carboxylic acid (S)-tetrahydro-pyran-3-ylamide]",31.4 nM,21.9 nM
"Cn1nc(-c2cnc3[nH]cc(C(=O)N[C@@H]4CCCOC4)c3n2)c2ccc(Cl)cc21 [Example I-139, 2-(6-Chloro-1-methyl-1H-indazol-3-yl)-5H-pyrrolo[2,3-b]pyrazine-7-carboxylic acid (R)-tetrahydro-pyran-3-ylamide]",4.59 nM,8.5 nM
"C[C@H](NC(=O)c1c[nH]c2ncc(-c3nn(C)c4cc(Cl)ccc34)nc12)C1CC1 [Example I-140, 2-(6-Chloro-1-methyl-1H-indazol-3-yl)-5H-pyrrolo[2,3-b]pyrazine-7-carboxylic acid ((S)-1-cyclopropyl-ethyl)-amide]",1.11 nM,9.15 nM
"Cn1nc(-c2cnc3[nH]cc(C(=O)N[C@H]4CC[C@@H](N)CC4)c3n2)c2ccc(Cl)cc21 [Example I-145, 2-(6-Chloro-1-methyl-1H-indazol-3-yl)-5H-pyrrolo[2,3-b]pyrazine-7-carboxylic acid (cis-4-amino-cyclohexyl)-amide]",17.4 nM,1.9 nM
"CC(Cc1ccccc1)NC(=O)c1c[nH]c2ncc(-c3nn(C)c4cc(Cl)ccc34)nc12 (centres unmarked) [Example I-150, 2-(6-Chloro-1-methyl-1H-indazol-3-yl)-5H-pyrrolo[2,3-b]pyrazine-7-carboxylic acid (1-methyl-2-phenyl-ethyl)-amide]",22.5 nM,1540 nM
"Cn1nc(-c2cnc3[nH]cc(C(=O)N[C@@H]4CCc5ccccc54)c3n2)c2ccc(Cl)cc21 [Example I-157, 2-(6-Chloro-1-methyl-1H-indazol-3-yl)-5H-pyrrolo[2,3-b]pyrazine-7-carboxylic acid (R)-indan-1-ylamide]",71.6 nM,413 nM
"Cn1nc(-c2cnc3[nH]cc(C(=O)N[C@H]4CC[C@@H](O)CC4)c3n2)c2ccc(Cl)cc21 [Example I-158, 2-(6-Chloro-1-methyl-1H-indazol-3-yl)-5H-pyrrolo[2,3-b]pyrazine-7-carboxylic acid (cis-4-hydroxy-cyclohexyl)-amide]",2.02 nM,9.7 nM
"COC[C@@H](C)NC(=O)c1c[nH]c2ncc(-c3nn(C)c4cc(Cl)ccc34)nc12 [Example I-159, 2-(6-Chloro-1-methyl-1H-indazol-3-yl)-5H-pyrrolo[2,3-b]pyrazine-7-carboxylic acid ((R)-2-methoxy-1-methyl-ethyl)-amide]",5.83 nM,66.5 nM
"CC(NC(=O)c1c[nH]c2ncc(-c3nn(C)c4cc(Cl)ccc34)nc12)C(F)(F)F (centres unmarked) [Example I-160, 2-(6-Chloro-1-methyl-1H-indazol-3-yl)-5H-pyrrolo[2,3-b]pyrazine-7-carboxylic acid (2,2,2-trifluoro-1-methyl-ethyl)-amide]",19.4 nM,37.3 nM

# Now from value to molecule:
IC50 [1],IC50 [2],Structure (SMILES)
9.44 nM,17.6 nM,"CC(C)CNC(=O)c1c[nH]c2ncc(-c3nn(C)c4cc(F)ccc34)nc12 [Example I-116, 2-(6-Fluoro-1-methyl-1H-indazol-3-yl)-5H-pyrrolo[2,3-b]pyrazine-7-carboxylic acid isobutyl-amide]"
11 nM,22.6 nM,"CC(C)NC(=O)c1c[nH]c2ncc(-c3nn(C)c4cc(Cl)cc(F)c34)nc12 [Example I-127, 2-(6-Chloro-4-fluoro-1-methyl-1H-indazol-3-yl)-5H-pyrrolo[2,3-b]pyrazine-7-carboxylic acid isopropylamide]"
13.3 nM,186 nM,"CC(C)NC(=O)c1c[nH]c2ncc(-c3nn(CCN(C)C)c4cc(Cl)cc(F)c34)nc12 [Example I-128, 2-[6-Chloro-1-(2-dimethylamino-ethyl)-4-fluoro-1H-indazol-3-yl]-5H-pyrrolo[2,3-b]pyrazine-7-carboxylic acid isopropylamide]"
4.41 nM,49.5 nM,"CC(C)NC(=O)c1c[nH]c2ncc(-c3nn(CCN4CCOCC4)c4cc(Cl)cc(F)c34)nc12 [Example I-129, 2-[6-Chloro-4-fluoro-1-(2-morpholin-4-yl-ethyl)-1H-indazol-3-yl]-5H-pyrrolo[2,3-b]pyrazine-7-carboxylic acid isopropylamide]"
8.04 nM,20.5 nM,"C[C@@H](CC#N)NC(=O)c1c[nH]c2ncc(-c3nn(C)c4cc(Cl)ccc34)nc12 [Example I-142, 2-(6-Chloro-1-methyl-1H-indazol-3-yl)-5H-pyrrolo[2,3-b]pyrazine-7-carboxylic acid ((S)-2-cyano-1-methyl-ethyl)-amide]"
> 1000 nM and 536 nM,54.9 nM,"Cn1nc(-c2cnc3[nH]cc(C(=O)NCCN)c3n2)c2ccc(Cl)cc21 [Example I-143, 2-(6-Chloro-1-methyl-1H-indazol-3-yl)-5H-pyrrolo[2,3-b]pyrazine-7-carboxylic acid (2-amino-ethyl)-amide]"
13.1 nM,37.1 nM,"Cn1nc(-c2cnc3[nH]cc(C(=O)N[C@H]4CC[C@H](O)CC4)c3n2)c2ccc(Cl)cc21 [Example I-144, 2-(6-Chloro-1-methyl-1H-indazol-3-yl)-5H-pyrrolo[2,3-b]pyrazine-7-carboxylic acid (trans-4-hydroxy-cyclohexyl)-amide]"
18.3 nM,8.65 nM,"Cn1nc(-c2cnc3[nH]cc(C(=O)N[C@H]4CC[C@H](N)CC4)c3n2)c2ccc(Cl)cc21 [Example I-146, 2-(6-Chloro-1-methyl-1H-indazol-3-yl)-5H-pyrrolo[2,3-b]pyrazine-7-carboxylic acid (trans-4-amino-cyclohexyl)-amide]"
3.47 nM,23.1 nM,"Cn1nc(-c2cnc3[nH]cc(C(=O)N[C@@H]4CC[C@H](O)C4)c3n2)c2ccc(Cl)cc21 [Example I-151, 2-(6-Chloro-1-methyl-1H-indazol-3-yl)-5H-pyrrolo[2,3-b]pyrazine-7-carboxylic acid ((1R,3S)-3-hydroxy-cyclopentyl)-amide]"
4.95 nM,47.3 nM,"CC(NC(=O)c1c[nH]c2ncc(-c3nn(C)c4cc(Cl)ccc34)nc12)C1CCCO1 (centres unmarked) [Example I-154, 2-(6-Chloro-1-methyl-1H-indazol-3-yl)-5H-pyrrolo[2,3-b]pyrazine-7-carboxylic acid [1-(tetrahydro-furan-2-yl)-ethyl]-amide]"
16.3 nM,17.3 nM,"CC[C@H](CO)NC(=O)c1c[nH]c2ncc(-c3nn(C)c4cc(Cl)ccc34)nc12 [Example I-161, 2-(6-Chloro-1-methyl-1H-indazol-3-yl)-5H-pyrrolo[2,3-b]pyrazine-7-carboxylic acid ((R)-1-hydroxymethyl-propyl)-amide]"
